Measurements reported in PMC8602401 (Scientific Reports, 2021).
pEC50: −log10 of the molar value. Like-named read-outs stand apart in the source and are kept apart here. *1 amine or outer side, *2 acyl side, *3 side chain or, on linkers, in order; H or OH if unused. Where a SMILES comes first, the peptide text is derived from it. Side-chain parts run from the residue outwards. [ ]: non-standard residue; d: D form. The star is where a group is joined. γGlu = O=C(O)[C@H](CCC(=O)[*:2])N[*:1]; αMeF = C[C@](N)(Cc1ccccc1)C(=O)O; αMeK = C[C@](N)(CCCCN)C(=O)O; Lauroyl = CCCCCCCCCCCC(=O)*; αMeS = C[C@](N)(CO)C(=O)O; AEEA = NCCOCCOCC(=O)O; Aib = CC(C)(N)C(=O)O

What was measured:
[1] = EScalate equilibrium shift assay, dog plasma; format: in vitro ADME; conditions: dog; EScalate equilibrium shift, five dilutions of plasma in PBS, 1 h at room temperature, HPLC-QTOF MS; read-out: Fraction unbound peptide (%), dog
[2] = tested on: dog plasma protein; experiment: EScalate equilibrium shift assay, dog plasma; format: in vitro ADME; conditions: EScalate equilibrium shift assay
[3] = tested on: monkey plasma protein; experiment: EScalate equilibrium shift assay, monkey plasma; format: in vitro ADME; conditions: EScalate equilibrium shift assay
Procedure: [The procedure below names another species; the source lists this species under the same test.] (§1) Binding of peptides to human plasma proteins was determined by the EScalate equilibrium shift assay (Sovicell, Leipzig, Germany), using five dilutions of plasma in phosphate buffered saline and an assumed binding protein concentration of 600 µM. Samples were incubated for 1 h at room temperature then centrifuged to remove the HSA-coated beads. Supernatant samples were analyzed using HPLC (3 µm Phenomenex Aeris Widepore XB-C18 stationary phase) coupled to an electrospray ionization quadrupole time-of-flight mass spectrometer in high resolution accurate mass mode (Agilent, Santa Clara, CA, USA). Unbound fractions were calculated from the concentration-dependent shift in binding equilibrium according to fu=1/1+P/KDPlasma , where P is the concentration of the binding protein in plasma and KDPlasma is the dissociation constant of the compound from plasma proteins in solution.

[4] = EScalate equilibrium shift assay, monkey plasma; format: in vitro ADME; conditions: monkey; EScalate equilibrium shift, five dilutions of plasma in PBS, 1 h at room temperature, HPLC-QTOF MS; read-out: Fraction unbound peptide (%), monkey
Procedure: [The procedure below names another species; the source lists this species under the same test.] as §1

[5] = target: T1, human GLP-1R (Homo sapiens, UniProt P43220); experiment: cAMP accumulation assay in CHO cells stably expressing human GLP-1R; format: cell-based; conditions: geometric mean (SEM); for pEC50: 30 min at room temperature, HTRF cAMP, n ≥ 3 independent experiments
T1 construct: expressed in transfected cells
T1 sequence (P43220 24-463): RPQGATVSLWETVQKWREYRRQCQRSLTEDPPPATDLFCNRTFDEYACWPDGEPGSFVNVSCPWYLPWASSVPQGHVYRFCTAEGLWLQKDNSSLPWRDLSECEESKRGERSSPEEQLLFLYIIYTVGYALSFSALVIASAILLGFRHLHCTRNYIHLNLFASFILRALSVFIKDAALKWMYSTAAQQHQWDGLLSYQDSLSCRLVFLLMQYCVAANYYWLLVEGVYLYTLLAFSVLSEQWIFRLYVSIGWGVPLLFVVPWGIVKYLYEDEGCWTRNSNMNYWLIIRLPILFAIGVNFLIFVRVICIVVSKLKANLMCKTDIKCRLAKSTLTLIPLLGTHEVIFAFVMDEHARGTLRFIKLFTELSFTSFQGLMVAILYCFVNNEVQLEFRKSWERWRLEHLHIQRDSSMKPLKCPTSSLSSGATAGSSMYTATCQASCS
Procedure: All reagents for cAMP assays were obtained from Sigma-Aldrich unless otherwise specified.
Cells were suspended in assay buffer and combined with serially diluted peptides at room temperature for 30 min. cAMP levels were measured using a cAMP dynamic 2 HTRF kit (Cisbio, Codolet, France), following the manufacturer’s two-step protocol, on an EnVision plate reader (PerkinElmer, Waltham, MA, USA). […] The transformed data were analyzed by four-parameter logistic fit to determine EC50 values using GraphPad Prism 6 (GraphPad Software, San Diego, CA, USA).

[6] = tested on: C57Bl/6 J mice; experiment: Acute food intake in C57Bl/6J mice; format: in vivo, mouse; conditions: versus placebo
Procedure: Male C57Bl/6 J mice 8–10 weeks of age (Jackson Laboratories, Bar Harbor, ME, USA) were single-housed in the BioDAQ (Research Diets, New Brunswick, NJ, USA) food monitoring system with ad libitum access to standard chow and water. Mice were randomized into groups of 6–9 per group on baseline 24-h food intake. On the first study day, mice were fasted for 6 h and then received a single subcutaneous dose of test peptide or placebo (50 mM Tris–HCl, 150 mM mannitol, 0.02% polysorbate 80; pH 8.0). Food intake was monitored over the next 48 h.

[7] = Fasted-state simulated intestinal fluid/pancreatin assay; format: in vitro ADME; conditions: FaSSIF with USP pancreatin; 2 h incubation in FaSSIF/USP pancreatin, pre-warmed, agitation; analytical RP-HPLC area under the curve; read-out: peptide remaining intact after incubation in FaSSIF/pancreatin
Procedure: Fresh FaSSIF and USP Pancreatin (FaSSIF/p; Sigma-Aldrich) was prepared according to Galia et al[55]. and used immediately. Peptides were dissolved in pre-warmed FaSSIF before addition of pre-warmed FaSSIF/pancreatin with agitation. Samples were analyzed by analytical RP-HPLC to determine remaining intact peptide by area under the curve.

[8] = tested on: db/db mice; experiment: Dose-response study in diabetic db/db mouse model; format: in vivo; conditions: once-daily subcutaneous for 28 days, n = 9 per group
Procedure: Male 7-week-old db/db mice (Charles River, Bristol, UK) were group-housed with ad libitum access to standard chow and water. Mice were randomized to groups of nine mice per group on baseline body weight, HbA1C and 4-h fasting glucose (assessed in tail bleed samples using a Cobas c-111 analyzer [Roche Diagnostics, Indianapolis, IN, USA] and Nova StatStrip Xpress glucometer [DSI, St. Paul, MN, USA]). Insulin was measured in plasma from tail bleeds using a Meso Scale kit. Over 28 days, mice received daily subcutaneous doses of test peptides or placebo (50 mM Tris–HCl, 150 mM mannitol, 0.02% polysorbate 80; pH 8.0).

- peptide bound to plasma proteins, dog [2]: over 97%
- peptide bound to plasma proteins, monkey [3]: over 97%
- CHO-hGLP-1R cAMP 0.1% BSA Effect at max. concentration ([5]; 0.1% BSA, % activation, 80 nM native GLP-1 defines maximum effect): 101.7 (0.5) %
- pEC50 ([5]; 4.4% HSA, read-out: CHO-hGLP-1R cAMP 4.4% HSA EC50): 9.40
- CHO-hGLP-1R cAMP 4.4% HSA Effect at max. concentration ([5]; 4.4% HSA, % activation, 80 nM native GLP-1 defines maximum effect): 94.3 (1.8) %
- pEC50 ([5]; CHO-hGLP-1R cAMP 0.1% BSA EC50, 0.1% BSA): 11.47
- remaining at 2 h [7]: > 60%
SMILES: CCCCCCCCCCCC(=O)N[C@@H](CCC(=O)NCCOCCOCC(=O)NCCOCCOCC(=O)NCCCC[C@H](NC(=O)[C@H](C)NC(=O)[C@@H](NC(=O)[C@](C)(Cc1ccccc1)NC(=O)[C@H](CCC(=O)O)NC(=O)[C@](C)(CCCCN)NC(=O)[C@H](C)NC(=O)[C@H](C)NC(=O)[C@H](CCC(=O)O)NC(=O)CNC(=O)[C@H](CCC(=O)O)NC(=O)[C@H](CC(C)C)NC(=O)[C@H](CCCCNC(=O)COCCOCCNC(=O)COCCOCCNC(=O)CC[C@H](NC(=O)CCCCCCCCCCC)C(=O)O)NC(=O)[C@H](CO)NC(=O)[C@](C)(CO)NC(=O)[C@@H](NC(=O)[C@H](CC(=O)O)NC(=O)[C@H](CO)NC(=O)[C@@H](NC(=O)[C@](C)(Cc1ccccc1)NC(=O)[C@H](CO)NC(=O)CNC(=O)[C@H](CCC(=O)O)NC(=O)C(C)(C)NC(=O)[C@@H](N)Cc1c[nH]cn1)[C@@H](C)O)C(C)C)[C@@H](C)CC)C(=O)N[C@H](C(=O)N[C@H](C(=O)N[C@@H](CCC(=O)O)C(=O)NCC(=O)NCC(N)=O)C(C)C)C(C)C)C(=O)O [MEDI7219] (H-H[Aib]EGS[αMeF]TSDV[αMeS]SK([AEEA-AEEA-γGlu-Lauroyl])LEGEAA[αMeK]E[αMeF]IAK([AEEA-AEEA-γGlu-Lauroyl])VVEGG-NH2)
- fraction unbound at 1 h [1]: 0.0176
- fraction unbound at 1 h [4]: 0.025
- 24-hour food intake, decrease (↓) in Fig. 3a ([6]; subcutaneous 0.3 nmol/kg): 12.6%
- 24-hour food intake, decrease (↓) in Fig. 3a ([6]; subcutaneous 1 nmol/kg): 18.0%
- 24-hour food intake, decrease (↓) in Fig. 3a ([6]; subcutaneous 3 nmol/kg): 39.4%
- HbA1C levels ([8]; P < 0.001 versus placebo for doses 1–30 nmol/kg): dose-dependently reduced HbA1C levels
- blood glucose levels over 28 days ([8]; significantly lower than placebo at 3–30 nmol/kg (P < 0.001)): dose-dependently reduced glucose levels
